The results in this text go back to patent US4361579A, “Organogermanium compounds” (Yoshitomi Pharmaceutical Industries, Ltd., priority 1979, dated 1982).

One data set concerns emigrating leukocytes. As to the kind of experiment: Potentiating Activity for Leukocyte Migration (CMC pouch). To be noted: 6 hours, vs control group. The class given is in vivo, rat (male Donryu). The protocol: The test was performed according to the method described by H. Ishikawa et al in "Yakugaku Zasshi (Journal of the Pharmaceutical Society of Japan)", vol. 88, 1472 (1968).
Male Donryu rats weighing about 150 g were divided into groups of 4 to 5 animals each. Five ml of 2% suspension of carboxymethylcellulose (CMC) in physiological saline was injected subcutaneously in the supra-scapular area. Compounds tested (0.4 ml/rat) were administered into the CMC pouch immediately after the injection of CMC suspension. Six hours later, 0.1 ml of fluid in the CMC pouch was collected and mixed with 6 ml of 0.05% brilliant cresyl blue solution in phosphate buffer (pH 7.2). The suspension was put in a Burker chamber and the emigrating leukocytes were counted under a microscope. The percent potentiation was calculated as compared with the count in the control group.

Data set [1] has as its system rosette forming cells (RFC) in thymus. As to the kind of experiment: Activity for Antibody Production: rosette forming cells (RFC) in thymus after sensitization with sheep red blood cells. The class given is in vivo, mouse (C57B1/6). To be noted: Control = 100, 7 days after sensitization. On the procedure:
(§1) C57B1/6 mice (6 week old, 20 g) were sensitized by intraperitoneally administering sheep red blood cells of 5×10^8 /0.1 ml. Compounds tested were given orally on the same day and next day of the sensitization. Seven days after the sensitization, the number of plaque forming cells (PFC) in spleen and of rosette forming cells (RFC) in spleen and thymus were measured in a usual manner.

For data set [2], the system named is plaque forming cells (PFC) in spleen. As to the kind of experiment: Activity for Antibody Production: plaque forming cells (PFC) in spleen after sensitization with sheep red blood cells. Format: in vivo, mouse (C57B1/6). To be noted: Control = 100, 7 days after sensitization. The protocol:
as §1

The test system of data set [3] is rosette forming cells (RFC) in spleen. As to the kind of experiment: Activity for Antibody Production: rosette forming cells (RFC) in spleen after sensitization with sheep red blood cells. The class given is in vivo, mouse (C57B1/6). To be noted: Control = 100, 7 days after sensitization. On the procedure:
as §1

The subject of a further data set is Adjuvant Arthritis. As to the kind of experiment: Prophylactic Effect on Adjuvant Arthritis (hind feet swelling). The class given is in vivo, rat (Lewis male). To be noted: day 1 to day 20, hind feet swelling at 28 days. On the procedure:
The tails of Lewis male rats (250 g) were injected mycobacterium butyricum (0.5 mg/0.1 ml). Compounds tested were orally administered daily from the adjuvant inoculation day (day 1) to day 20. Swellings in the hind feet were measured at 28 days after the adjuvant inoculation.

The next data set relates to rat. The experiment in a line: Acute Toxicity (rat, per os). Format: in vivo. To be noted: 2000 mg/kg. An excerpt:
| Acute Toxicity (rat, per os)

The mark [4] stands for this setting: 30 mg/kg orally, *p < 0.05, **p < 0.01.
The mark [5] stands for this setting: 3 mg/kg orally, *p < 0.05, **p < 0.01.

“poly(carboxyethylgermanium sesquioxide) [Comparison, reference compound]”: the “Potentiation (%)” value in the data set on emigrating leukocytes (20 mg/rat into the CMC pouch) is listed as 13%. In data set [1] (setting [4]), the “RFC in Thymus” value came out at 168. In data set [2] (30 mg/kg orally, *p < 0.05), the “PFC in Spleen” value worked out at 100. In addition, the “RFC in Spleen” value in data set [3] (30 mg/kg orally, **p < 0.01) came to 121. Also, the results for the “Inhibition (%)” value with Adjuvant Arthritis (25 mg/kg orally daily) and with Adjuvant Arthritis (100 mg/kg orally daily) were -18% and 15%, respectively.
For the substance “polycondensation product of p-(N-ethyl-2-ethoxycarbonylacetylamino)phenylgermanium trihydroxide”, the “Potentiation (%)” value was 7% with emigrating leukocytes (0.25 mg/rat into the CMC pouch), 87% with emigrating leukocytes (5 mg/rat into the CMC pouch) and 96% in the data set on emigrating leukocytes (20 mg/rat into the CMC pouch).
“polycondensation product of p-(N-ethyl-3-ethoxycarbonylpropionylamino)phenylgermanium trihydroxide [Compound D]”: the “Potentiation (%)” value in the data set with emigrating leukocytes (5 mg/rat into the CMC pouch) was 7%; in the data set on emigrating leukocytes (10 mg/rat into the CMC pouch), 33%; with emigrating leukocytes (20 mg/rat into the CMC pouch), 210%.
With “polycondensation product of p-(N-methyl-2-ethoxycarbonylacetylamino)phenylgermanium trihydroxide”, the “Potentiation (%)” value in the data set with emigrating leukocytes (10 mg/rat into the CMC pouch) was determined as 16%; in the data set on emigrating leukocytes (20 mg/rat into the CMC pouch) it was 91%. The “RFC in Thymus” value stood at 315 in data set [1] (1 mg/kg orally, **p < 0.01); 284 in data set [1] (setting [5]); 431 in data set [1] (setting [4]). Also, in the data set on rat, the Mortality is on record as 0/5. Also, the “PFC in Spleen” value in data set [2] (1 mg/kg orally) was 110; in data set [2] (3 mg/kg orally), 125; in data set [2] (30 mg/kg orally, *p < 0.05), 175. Moreover, the “RFC in Spleen” value in data set [3] (1 mg/kg orally) is reported as 157; in data set [3] (3 mg/kg orally, *p < 0.05), 346; in data set [3] (30 mg/kg orally, **p < 0.01) it was 703. The “Inhibition (%)” value in the data set with Adjuvant Arthritis (10 mg/kg orally daily) is on record as 22%; in the data set on Adjuvant Arthritis (25 mg/kg orally daily), 48%.
For the substance “polycondensation product of p-(N-methyl-3-carboxypropionylamino)phenylgermanium trihydroxide”, the “Potentiation (%)” value with emigrating leukocytes (10 mg/rat into the CMC pouch) is 26%; in the data set with emigrating leukocytes (20 mg/rat into the CMC pouch), 47%. Also, the “RFC in Thymus” value in data set [1] (setting [5]) amounted to 218. In data set [2] (3 mg/kg orally), the “PFC in Spleen” value was 68. The “RFC in Spleen” value in data set [3] (3 mg/kg orally, *p < 0.05) is listed as 86. The “Inhibition (%)” value in the data set on Adjuvant Arthritis (25 mg/kg orally daily) is reported as 35%; with Adjuvant Arthritis (100 mg/kg orally daily), 53%.
Regarding “polycondensation product of p-(N-methyl-3-ethoxycarbonylpropionylamino)phenylgermanium trihydroxide”, the entries for the “Potentiation (%)” value with emigrating leukocytes (2.5 mg/rat into the CMC pouch) and with emigrating leukocytes (5 mg/rat into the CMC pouch) were 17% and 87%, respectively. The “RFC in Thymus” value in data set [1] (setting [4]) is listed as 248. Further, the “PFC in Spleen” value in data set [2] (30 mg/kg orally, *p < 0.05) is listed as 81. Further, the “RFC in Spleen” value in data set [3] (30 mg/kg orally, **p < 0.01) worked out at 108. Further, the “Inhibition (%)” value with Adjuvant Arthritis (25 mg/kg orally daily) amounted to 5%; in the data set with Adjuvant Arthritis (100 mg/kg orally daily), 31%.
Turning to “polycondensation product of p-(N-methyl-4-carboxybutyrylamino)phenylgermanium trihydrodie”, the “Potentiation (%)” value with emigrating leukocytes (10 mg/rat into the CMC pouch) is 44%. Also, in data set [1] (setting [5]), the “RFC in Thymus” value is 141. In data set [2] (3 mg/kg orally), the “PFC in Spleen” value was 95. Also, in data set [3] (3 mg/kg orally, *p < 0.05), the “RFC in Spleen” value was determined as 85.
Regarding “polycondensation product of p-(N-methyl-4-ethoxycarbonylbutyrylamino)phenylgermanium trihydroxide”, in the data set with emigrating leukocytes (20 mg/rat into the CMC pouch), the “Potentiation (%)” value was determined as 56%.
In the case of “polycondensation product of p-(N-methyl-m-methylbenzoylamino)phenylgermanium trihydroxide”, the entries for the “Potentiation (%)” value in the data set on emigrating leukocytes (10 mg/rat into the CMC pouch) and with emigrating leukocytes (20 mg/rat into the CMC pouch) were 46% and 55%, respectively.
